# What was measured:
# Format in all cases: functional
# [1] = system: MGC-803; test: Antiproliferative activity against human MGC-803 cells incubated for 48 hrs by CCK8 assay
# [2] = system: A549; test: Antiproliferative activity against human A549 cells incubated for 48 hrs by CCK8 assay
# [3] = system: MV4-11; test: Antiproliferative activity against human MV4-11 cells incubated for 48 hrs by CCK8 assay
# [4] = system: A-375; test: Antiproliferative activity against human A-375 cells incubated for 48 hrs by CCK8 assay
# [5] = system: MDA-MB-231; test: Antiproliferative activity against human MDA-MB-231 cells incubated for 48 hrs by CCK8 assay
# [6] = system: GES1; test: Antiproliferative activity against human GES1 cells incubated for 48 hrs by CCK8 assay
# [7] = system: MOLM-13; test: Antiproliferative activity against human MOLM-13 cells incubated for 48 hrs by CCK8 assay
structure (smiles),measurement,setting,value
Cc1c(Br)c(Br)c2c3c1nc(N1CCNCC1)n3CCC2 [SEL-120 FREE BASE],GI50,[1],16.3 µM
same,GI50,[2],12.1 µM
same,GI50,[3],0.07 µM
same,GI50,[4],5.9 µM
same,GI50,[5],9.6 µM
same,GI50,[6],55.3 µM
same,GI50,[7],0.02 µM
